Experimental data from ChEMBL document CHEMBL1201862, “PubChem BioAssay data set” (2004).
Active and inactive are the calls of the source.

Key:
[1] = test system: Streptococcus sp. 'group A'; assay: Streptococcus pyogenes SK(-)GAS viability under kanamycin – luminescence, BacTiterGlo, confirmation, counter-screen for streptokinase expression inhibitor project, dose response (AID 1900); type: functional, organism-based
Streptokinase A = biological target: T1, Streptokinase A (Streptococcus pyogenes serotype M1, UniProt P10520); assay: viability-normalized secreted streptokinase activity reduction – plasminogen activation absorbance, OD405, dose response (AID 1914); type: functional, Streptococcus pyogenes M1 GAS;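 also: secreted streptokinase activity via plasminogen activation per viability signal from cell pellet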
T1 sequence (P10520 whole entry): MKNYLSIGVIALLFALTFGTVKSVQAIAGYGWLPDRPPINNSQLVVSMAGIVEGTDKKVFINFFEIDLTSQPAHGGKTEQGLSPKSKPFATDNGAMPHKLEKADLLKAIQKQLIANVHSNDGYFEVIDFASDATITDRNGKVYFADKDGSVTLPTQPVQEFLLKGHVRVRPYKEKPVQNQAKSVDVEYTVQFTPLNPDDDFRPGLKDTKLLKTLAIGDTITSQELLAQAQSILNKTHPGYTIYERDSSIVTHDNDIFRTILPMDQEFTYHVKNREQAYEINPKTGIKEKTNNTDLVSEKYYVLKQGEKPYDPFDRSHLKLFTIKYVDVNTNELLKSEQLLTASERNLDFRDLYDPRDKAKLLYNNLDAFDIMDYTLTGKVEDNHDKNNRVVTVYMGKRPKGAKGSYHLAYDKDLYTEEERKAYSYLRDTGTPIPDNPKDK

Streptococcus = assay: GAS UMAA2166 growth inhibition – luminescence, BacTiterGlo, counter-screen for streptokinase expression inhibitor project, dose response (AID 1915); type: functional, organism-based;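 also: potency for reduction of bacterial viability or growth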
[2] = Luminescence Cell-Based Dose Retest to Confirm Inhibitors of Cancer Stem Cells. [Related pubchem assays (depositor defined):AID2717, AID2721]; type: functional; details: Homo sapiens
Bcl-2-related protein A1 = biological target: T2, Bcl-2-related protein A1 (Mus musculus, UniProt Q07440); type: functional;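 also: confirmatory dose–response counterscreen on Bfl-1, used to check hits from a UBC13 polyubiquitin inhibitor campaign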
T2 sequence (Q07440 whole entry): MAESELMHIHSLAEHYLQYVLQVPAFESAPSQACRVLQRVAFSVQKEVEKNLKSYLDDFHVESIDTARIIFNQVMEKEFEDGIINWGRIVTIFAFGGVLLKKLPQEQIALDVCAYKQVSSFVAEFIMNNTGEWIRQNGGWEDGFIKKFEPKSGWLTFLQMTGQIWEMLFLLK

[3] = biological target: T3, Ubiquitin-conjugating enzyme E2 N (Homo sapiens, UniProt P61088); type: functional
T3 sequence (P61088 whole entry): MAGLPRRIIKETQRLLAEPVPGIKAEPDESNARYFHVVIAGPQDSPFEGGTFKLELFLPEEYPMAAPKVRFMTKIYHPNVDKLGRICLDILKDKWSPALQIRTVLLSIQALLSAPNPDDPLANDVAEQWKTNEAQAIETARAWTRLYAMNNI

[4] = biological target: T3, Ubiquitin-conjugating enzyme E2 N; type: functional; remark: listed apart in the source
Cysteine protease ATG4B = Cysteine protease ATG4B (Homo sapiens, UniProt Q9Y4P1); type: functional;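 also: Fluorescence-based dose-response confirmation assay measuring inhibition of ATG4B activity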
Cysteine protease ATG4B, sequence (Q9Y4P1 whole entry): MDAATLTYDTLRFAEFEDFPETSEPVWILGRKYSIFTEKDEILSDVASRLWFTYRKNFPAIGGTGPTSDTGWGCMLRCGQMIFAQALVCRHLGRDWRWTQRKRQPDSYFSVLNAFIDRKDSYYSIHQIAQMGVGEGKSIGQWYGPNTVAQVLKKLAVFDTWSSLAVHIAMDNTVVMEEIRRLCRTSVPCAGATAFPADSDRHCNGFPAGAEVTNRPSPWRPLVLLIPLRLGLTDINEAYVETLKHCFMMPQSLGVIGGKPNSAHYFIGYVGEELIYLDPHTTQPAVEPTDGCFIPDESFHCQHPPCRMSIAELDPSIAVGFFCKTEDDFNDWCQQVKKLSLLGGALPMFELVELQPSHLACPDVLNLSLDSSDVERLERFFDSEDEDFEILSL

[5] = biological target: T4, Replicative DNA helicase DnaB (Mycobacterium tuberculosis, UniProt P9WMR3); assay: DnaB intein splicing inhibitors, dose response, biochemical, cell-free fluorescence (AID 449749); type: functional
T4 sequence (P9WMR3 whole entry): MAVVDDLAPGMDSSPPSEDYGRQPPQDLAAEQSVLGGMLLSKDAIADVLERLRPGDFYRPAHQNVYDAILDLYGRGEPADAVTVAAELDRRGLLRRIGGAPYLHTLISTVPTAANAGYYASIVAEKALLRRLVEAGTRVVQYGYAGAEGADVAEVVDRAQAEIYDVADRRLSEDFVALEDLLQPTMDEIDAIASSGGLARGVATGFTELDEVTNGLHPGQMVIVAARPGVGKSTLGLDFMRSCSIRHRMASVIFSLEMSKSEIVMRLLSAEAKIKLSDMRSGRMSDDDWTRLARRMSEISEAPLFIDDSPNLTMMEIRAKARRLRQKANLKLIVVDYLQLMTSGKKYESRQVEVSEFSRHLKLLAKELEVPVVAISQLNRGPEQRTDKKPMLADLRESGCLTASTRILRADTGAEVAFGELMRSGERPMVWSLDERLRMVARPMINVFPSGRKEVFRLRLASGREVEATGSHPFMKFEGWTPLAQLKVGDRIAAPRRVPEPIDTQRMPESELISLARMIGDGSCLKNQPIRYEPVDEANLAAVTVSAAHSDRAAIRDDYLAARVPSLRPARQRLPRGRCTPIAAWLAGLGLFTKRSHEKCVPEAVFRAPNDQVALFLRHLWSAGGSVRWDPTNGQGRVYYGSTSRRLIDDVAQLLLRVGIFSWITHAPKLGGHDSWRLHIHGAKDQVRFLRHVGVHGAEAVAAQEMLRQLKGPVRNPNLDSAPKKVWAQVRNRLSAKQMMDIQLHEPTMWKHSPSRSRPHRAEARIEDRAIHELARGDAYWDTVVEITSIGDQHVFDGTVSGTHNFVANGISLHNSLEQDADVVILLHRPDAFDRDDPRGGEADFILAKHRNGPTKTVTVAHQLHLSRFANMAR

Phospholipase A2 = Phospholipase A2 (Homo sapiens, UniProt P04054); type: functional;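 also: confirmatory dose-response counterscreen on phospholipase A2, testing hits that came from an ultra-high-throughput screen for ATG4B inhibitors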
Phospholipase A2, sequence (P04054 whole entry): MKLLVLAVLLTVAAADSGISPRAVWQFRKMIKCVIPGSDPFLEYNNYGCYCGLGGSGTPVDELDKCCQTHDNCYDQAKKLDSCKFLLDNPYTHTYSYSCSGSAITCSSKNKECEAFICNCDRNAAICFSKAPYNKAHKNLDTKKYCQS

Protein RecA = biological target: T5, Protein RecA (Mycobacterium tuberculosis, UniProt P9WHJ3); assay: Fluorescence Cell-Free Homogeneous Dose Retest to Identify Inhibitors of RecA-Intein Splicing Activity. [Related pubchem assays (depositor defined):AID2097, AID2223, AID489010, AID492950]; type: functional
T5 sequence (P9WHJ3 whole entry): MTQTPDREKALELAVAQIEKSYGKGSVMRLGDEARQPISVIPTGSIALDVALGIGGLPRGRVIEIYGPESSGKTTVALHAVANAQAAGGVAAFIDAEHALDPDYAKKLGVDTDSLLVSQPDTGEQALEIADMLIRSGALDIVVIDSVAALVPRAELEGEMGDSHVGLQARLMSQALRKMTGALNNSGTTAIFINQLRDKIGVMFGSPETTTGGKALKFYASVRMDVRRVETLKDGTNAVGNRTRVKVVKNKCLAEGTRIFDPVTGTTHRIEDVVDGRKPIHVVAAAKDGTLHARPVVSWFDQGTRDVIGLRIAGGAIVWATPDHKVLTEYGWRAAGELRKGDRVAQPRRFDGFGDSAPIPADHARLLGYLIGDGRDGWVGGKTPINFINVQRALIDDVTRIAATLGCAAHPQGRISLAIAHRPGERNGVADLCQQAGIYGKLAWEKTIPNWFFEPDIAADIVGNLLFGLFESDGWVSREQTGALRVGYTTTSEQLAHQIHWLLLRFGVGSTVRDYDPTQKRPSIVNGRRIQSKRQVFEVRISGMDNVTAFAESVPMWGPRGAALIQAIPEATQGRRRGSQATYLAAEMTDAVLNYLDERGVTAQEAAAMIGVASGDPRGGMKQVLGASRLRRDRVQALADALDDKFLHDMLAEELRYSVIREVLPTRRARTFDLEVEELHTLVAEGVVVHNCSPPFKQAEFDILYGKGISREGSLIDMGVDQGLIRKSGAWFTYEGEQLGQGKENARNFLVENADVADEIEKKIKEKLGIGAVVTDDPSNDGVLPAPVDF

[6] = biological target: T6, Sentrin-specific protease 8 (Homo sapiens, UniProt Q96LD8); assay: inhibition of human SENP8 cleavage activity – biochemical, luminescence, SAR follow-up (AID 504501); type: functional
T6 sequence (Q96LD8 whole entry): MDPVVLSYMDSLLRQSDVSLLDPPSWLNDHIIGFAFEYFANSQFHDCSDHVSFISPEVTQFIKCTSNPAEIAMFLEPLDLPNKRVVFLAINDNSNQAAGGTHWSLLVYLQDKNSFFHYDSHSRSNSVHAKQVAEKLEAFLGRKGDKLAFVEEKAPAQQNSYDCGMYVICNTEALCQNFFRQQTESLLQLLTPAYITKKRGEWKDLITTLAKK

Caspase-3 = biological target: T7, Caspase-3 (Homo sapiens, UniProt P42574); assay: SAR Analysis of small molecule inhibitors of Sentrin-specific proteases (SENPs) using a Caspase-3 Selectivity assay. [Related pubchem assays (depositor defined):AID2540, AID2599, AID434973, AID489001]; type: functional
T7 sequence (P42574 whole entry): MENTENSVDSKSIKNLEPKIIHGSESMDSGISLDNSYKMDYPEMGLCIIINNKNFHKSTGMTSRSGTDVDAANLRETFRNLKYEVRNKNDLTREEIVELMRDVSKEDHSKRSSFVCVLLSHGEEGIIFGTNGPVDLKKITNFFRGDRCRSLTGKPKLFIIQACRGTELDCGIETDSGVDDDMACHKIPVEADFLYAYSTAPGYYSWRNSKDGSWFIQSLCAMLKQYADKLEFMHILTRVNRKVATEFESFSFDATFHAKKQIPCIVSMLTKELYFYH

[7] = biological target: T8, Sentrin-specific protease 6 (Homo sapiens, UniProt Q9GZR1); assay: SAR Analysis of small molecule inhibitors of Sentrin-specific protease 6 (SENP6) using a Luminescent assay. [Related pubchem assays (depositor defined):AID2582, AID2599]; type: functional
T8 sequence (Q9GZR1 whole entry): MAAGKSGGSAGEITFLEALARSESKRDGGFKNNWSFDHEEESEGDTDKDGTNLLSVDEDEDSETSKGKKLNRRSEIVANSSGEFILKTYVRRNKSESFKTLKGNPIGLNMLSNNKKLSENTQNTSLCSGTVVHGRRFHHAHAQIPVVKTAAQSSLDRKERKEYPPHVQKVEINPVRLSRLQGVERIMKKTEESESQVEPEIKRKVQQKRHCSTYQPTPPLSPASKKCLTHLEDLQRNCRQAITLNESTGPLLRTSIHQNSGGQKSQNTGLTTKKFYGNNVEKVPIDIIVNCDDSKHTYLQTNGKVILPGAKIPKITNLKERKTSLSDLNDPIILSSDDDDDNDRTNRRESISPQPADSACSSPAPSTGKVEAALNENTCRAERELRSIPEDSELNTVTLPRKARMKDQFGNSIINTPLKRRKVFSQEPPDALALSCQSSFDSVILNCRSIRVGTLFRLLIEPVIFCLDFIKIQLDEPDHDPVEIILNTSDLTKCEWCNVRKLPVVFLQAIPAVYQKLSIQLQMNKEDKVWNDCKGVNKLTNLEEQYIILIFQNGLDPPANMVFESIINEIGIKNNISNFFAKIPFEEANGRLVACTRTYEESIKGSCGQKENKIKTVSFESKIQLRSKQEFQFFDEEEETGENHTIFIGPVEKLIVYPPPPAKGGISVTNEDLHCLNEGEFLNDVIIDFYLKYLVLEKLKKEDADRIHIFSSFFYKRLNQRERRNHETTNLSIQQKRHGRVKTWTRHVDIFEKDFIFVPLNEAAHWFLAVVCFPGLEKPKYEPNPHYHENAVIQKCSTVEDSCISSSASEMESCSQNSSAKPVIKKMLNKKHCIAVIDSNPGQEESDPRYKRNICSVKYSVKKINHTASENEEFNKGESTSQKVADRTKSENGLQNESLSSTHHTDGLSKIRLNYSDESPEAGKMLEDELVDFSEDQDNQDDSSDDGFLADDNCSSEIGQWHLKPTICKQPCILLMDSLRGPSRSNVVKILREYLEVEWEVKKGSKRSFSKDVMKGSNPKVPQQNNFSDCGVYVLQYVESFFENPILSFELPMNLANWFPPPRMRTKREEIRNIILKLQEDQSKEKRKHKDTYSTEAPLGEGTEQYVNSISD

[8] = biological target: T9, Sentrin-specific protease 7 (Homo sapiens, UniProt Q9BQF6); assay: inhibition of human SENP7 cleavage activity – biochemical, luminescence, SAR follow-up (AID 504497); type: functional
T9 sequence (Q9BQF6 whole entry): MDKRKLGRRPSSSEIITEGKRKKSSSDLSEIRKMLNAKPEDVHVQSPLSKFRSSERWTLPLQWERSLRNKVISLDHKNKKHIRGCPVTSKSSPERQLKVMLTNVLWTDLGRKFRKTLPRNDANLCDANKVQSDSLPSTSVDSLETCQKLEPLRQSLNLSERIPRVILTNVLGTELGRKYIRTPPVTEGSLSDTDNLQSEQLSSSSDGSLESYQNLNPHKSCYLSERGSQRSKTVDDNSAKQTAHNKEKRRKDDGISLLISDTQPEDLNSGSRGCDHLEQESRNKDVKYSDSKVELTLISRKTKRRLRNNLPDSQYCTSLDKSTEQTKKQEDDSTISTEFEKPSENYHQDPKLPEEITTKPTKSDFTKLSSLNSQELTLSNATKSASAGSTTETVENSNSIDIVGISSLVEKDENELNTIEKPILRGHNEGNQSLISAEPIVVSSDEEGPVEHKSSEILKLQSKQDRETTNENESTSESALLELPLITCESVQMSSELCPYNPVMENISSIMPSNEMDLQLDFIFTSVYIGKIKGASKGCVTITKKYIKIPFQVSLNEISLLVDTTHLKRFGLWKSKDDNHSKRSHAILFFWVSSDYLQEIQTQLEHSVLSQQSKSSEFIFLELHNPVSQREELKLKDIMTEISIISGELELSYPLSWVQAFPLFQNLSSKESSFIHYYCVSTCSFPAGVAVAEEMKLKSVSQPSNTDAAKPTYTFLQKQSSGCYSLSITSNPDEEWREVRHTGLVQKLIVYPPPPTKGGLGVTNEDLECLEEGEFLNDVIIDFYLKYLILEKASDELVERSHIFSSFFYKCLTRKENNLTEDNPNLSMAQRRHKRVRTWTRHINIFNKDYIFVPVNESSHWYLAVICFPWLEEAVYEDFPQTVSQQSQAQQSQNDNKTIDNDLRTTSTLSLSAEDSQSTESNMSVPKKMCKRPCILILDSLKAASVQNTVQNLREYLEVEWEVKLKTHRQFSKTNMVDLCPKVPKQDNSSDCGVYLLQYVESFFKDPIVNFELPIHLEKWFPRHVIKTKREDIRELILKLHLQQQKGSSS

SMILES	EC50 [1]	EC50 (Streptokinase A)	EC50 (Streptococcus)	AC50 [2]	IC50 (Bcl-2-related protein A1)	IC50 [3]	IC50 [4]	IC50 (Cysteine protease ATG4B)	AC50 [5]	IC50 (Phospholipase A2)	EC50 (Protein RecA)	IC50 [6]	IC50 (Caspase-3)	IC50 [7]	IC50 [8]
CCCCCCCCOC(=O)c1c(CSC(=N)N)n(C)c2cc(Br)c(OC(C)=O)cc12	2.05 µM (active)	> 150 µM (not active)	8.01 µM (active)	2.7 µM (active)	> 20 µM (inactive)	12.4 µM (active)	4.22 µM (active)	8.63 µM (active)	4.36 µM (active)	52.2 µM (inactive)	1.57 µM (active)	–	–	–	–
Cc1ccc(/C=C/c2nc(-c3ccc(NS(=O)(=O)c4cccs4)cc3)no2)cc1	–	–	–	–	–	–	–	–	–	–	–	> 99 µM (inactive)	> 99 µM (inactive)	> 99 µM (inactive)	> 99 µM (inactive)
Cc1cc(NS(=O)(=O)c2ccc(F)c(F)c2)cc2sc(NC(=O)c3ccccc3)nc12	–	–	–	–	–	–	–	–	–	–	–	> 99 µM (inactive)	> 99 µM (inactive)	> 99 µM (inactive)	34.3 µM (active)
